Data reported in ChEMBL document CHEMBL1145701, “Spinonin, a novel glycoside from Ononis spinosa subsp. leiosperma” (1997).
≈ marks a conversion by molar mass, not a printed value. Calls of active or inactive are those of the source. No cut-off for these calls is given here.

Assays:
Streptococcus = assay: Antimicrobial activity against beta-hemolytic Streptococcus isolate 48 by paper-disk diffusion method; assay type: functional
Pseudomonas aeruginosa = assay: Antimicrobial activity against Pseudomonas aeruginosa ATCC 9027 by paper-disk diffusion method; assay type: functional
BC1 = assay: Cytotoxicity against human BC1 cells; assay type: functional, cell-based
Lu1 = assay: Cytotoxicity against human Lu1 cells; assay type: functional, cell-based
KBVIN = assay: Cytotoxicity against human KBVIN cells in presence of vinblastine; assay type: functional, cell-based
SK-N-SH = assay: Cytotoxicity against human SK-N-SH cells […]; assay type: functional, cell-based
[1] = biological target: Human immunodeficiency virus type 1 reverse transcriptase (Human immunodeficiency virus 1) (UniProt Q72547); assay: Inhibition of HIV1 reverse transcriptase

| MIC (Pseudomonas aeruginosa) | Activity [1] | Structure (SMILES) | MIC (Streptococcus) | Activity (BC1) | Activity (Lu1) | Activity (KBVIN) | Activity (SK-N-SH) |
| --- | --- | --- | --- | --- | --- | --- | --- |
|  |  | COc1ccc(-c2coc3cc(O[C@@H]4O[C@H](CO)[C@@H](O)[C@H](O)[C@H]4O)ccc3c2=O)cc1 [ONONIN] | 25 µg/mL (≈ 58.1 µM) |  |  |  |  |
| 200 µg/mL (≈ 463 µM) |  | COc1ccc2c(c1)O[C@H]1c3ccc(O[C@@H]4O[C@H](CO)[C@@H](O)[C@H](O)[C@H]4O)cc3OC[C@@H]21 |  |  |  |  |  |
| 200 µg/mL (≈ 434 µM) | inactive | O=C1C=C(c2ccc(O)cc2O[C@@H]2O[C@H](CO)[C@@H](O)[C@H](O)[C@H]2O)O[C@@H]1Cc1ccc(O)cc1 [SPINONIN] |  | inactive | inactive | inactive | inactive |
